Literature values as cited in patent publication US9842198B2, “Screening method and systems utilizing mass spectral fragmentation patterns” (McMaster University, priority 2012, dated 2017).
*1 amine or outer side, *2 acyl side, *3 side chain or, on linkers, in order; H or OH if unused. Where a SMILES comes first, the peptide text is derived from it. Bridges are numbered along the chain shown (N, C = ends). [ ]: non-standard residue; d: D form. The star is where a group is joined. Cinnamoyl(2-(1Z-pentenyl)) = CCC/C=C\c1ccccc1/C=C/C(=O)*; X1 = CN(/C(=C/c1ccc(O)cc1)C(=O)[*:2])[*:1]; aThr = C[C@H](O)[C@H](N)C(=O)O

System: G-protein coupled receptor NK-1
Conditions: natural ligands are tachykinin peptide hormones such as neurokinin A

Question: Which “antagonist activity at NK-1” value does the source give for `CCC/C=C\c1ccccc1/C=C/C(=O)N[C@@H]1C(=O)N(C)/C(=C/c2ccc(O)cc2)C(=O)N[C@@H](CC(C)C)C(=O)N[C@H](Cc2ccccc2)C(=O)N[C@@H]([C@H](C)O)C(=O)N[C@@H](CC(N)=O)C(=O)N[C@@H](CO)C(=O)O[C@@H]1C` [WS-9326A] ({Cinnamoyl(2-(1Z-pentenyl))}-T[X1]L[dF][aThr]NS; ester 1-C) here?
Answer: potent antagonist
